For assay [1], the system named is Ba/F3 cells. As to the kind of experiment: Growth of Ba/F3 cells without expression vectors in HEL-containing medium without IL-3. As to conditions: RPMI 1640, 10 μg/ml HEL, 10% FBS, no expression vectors introduced. Format: cell-based, mouse. Here is the method: Two plasmids, PME-VHER and pME-VLER, produced in Example 1, were introduced into the cell line Ba/F3 which is derived from the interleukin-3 (IL-3) dependent mouse pro-B cells, by using electroporation method. The Ba/F3 cells (2×10^6) in the logarithmic growth period and 5 μg each of above plasmid DNAs linearized with the restriction enzyme KpnI were suspended in 100 μl HBS (Hanks' Buffered Saline: Nissui Pharmacy). Rectangular pulses, 500 volts/150 μsec, were applied 10 times using a gene introduction electric pulse generator (electrodes of 4 mm intervals, Bio-Rad). The cells was kept at room temperatures for five minutes, diluted in 4 ml RPMI 1640 culture media (Nissui Pharmacy) containing 400 μg/ml G418 (Sigma), 8 ng/ml mouse IL-3 (Genzyme) and 10% fetal bovine serum (FBS, Gibco), added into 24-well plates 1 ml each, and cultured for two weeks at 37° C. in the 5% CO2 humidified atmosphere. The resultant colonies were mixed and cultured for another three days in the same media 100 μl cell suspensions were diluted in 2 ml RPMI 1640 medium containing 10 μg/ml hen egg lysozyme (HEL, Seikagaku) and 10% FBS (Gibco) and were subcultured. The Ba/F3 cell line is known to be released from IL-3 dependency by the ectopic expression of the EPO receptor when EPO is added to the medium. […]

Assay [2] concerns Ba/HEL cells (Ba/F3 cells expressing VH/VL-EpoR chimeric receptors). As to the kind of experiment: Antigen-dependent growth of Ba/HEL cell clones (viable cell count, trypan blue). Format: cell-based, mouse. Here is the method:
FIG. 3 is a graph showing the relation between the concentrations of antigen n a culture medium and cell growth rates. Clone G8 was obtained by transforming Ba/F3 cells with the VH/VL EpoR vector constructs and growing in the presence of antigen. In this experiment, separate cultures of Clone G8 was cultured with different constant amounts of the antigen HEL over a 5-day period. Cell proliferation was dose-dependent, and was inducible up to at least about 5 times the rate by including antigen in the culture medium.
The clones of Ba/HEL cells were cultured with various concentrations of HEL to measure the change of the cell number over time. HEL was added in the concentrations of 0, 0.005, 0.05 and 0.5 μg/ml to the RPMI 1640 medium containing 10% FBS, seeded Ba/HEL clones with the initial concentration of 5×10^3 ml, and measured the change in the number of viable cells over time by the cell count method using trypan blue.
Cell growth was conspicuously accelerated with as low as 5 ng/ml antigen. This concentration agrees with the detectable antigen concentration in the immunoassay based on VH/VL association of HyHEL-10 Fv (Ueda et al., Nature Biotech, 14, 1714-1718, 1996). Accordingly, antigen concentration can be measured, that is, immunoassay can be performed using the level of growth of this cell as an index.

On to hen egg lysozyme [HEL], for which the “Growth of cells in HEL-containing medium” value in assay [1] is “did not grow”. The “Cell growth in relation to the HEL concentration in the medium” value in assay [2] (Ba/HEL clone G8, similar results for all clones inspected) was “cell growth depends on the concentration of HEL”. Further, the “Antigen concentration at which cell growth was conspicuously accelerated” value in assay [2] (Ba/HEL clones, RPMI 1640 with 10% FBS, HEL 0, 0.005, 0.05 and 0.5 μg/ml) is at most 5 ng/mL. Further, in assay [2] (Clone G8, different constant amounts of HEL over a 5-day period), the “Cell proliferation inducible by including antigen in the culture medium” value is “at least 5 times the rate”.

Source of the values: US20030095962A1, “Chimeric cell-surface receptors that undergo antigen-induced association” (priority 1997, published 2003).
